# Results published in US7208515B2, “Diphenylmethyl compounds useful as muscarinic receptor antagonists” (Theravance, Inc., priority 2004, dated 2007).
# Target: T1, hM3 receptor (CHO cells) (Homo sapiens, UniProt P20309)
# T1 construct: expressed in transfected cells
# Assay: Blockade of agonist-mediated calcium release via FLIPR assay
# Format: cell-based
# Conditions: CHO cells stably expressing the hM3 receptor, oxotremorine
# Excerpt: C. Blockade of Agonist-Mediated Calcium Release via FLIPR Assays
# Muscarinic receptor subtypes (M1, M3 and M5 receptors), which couple to Gq proteins, activate the phospholipase C (PLC) pathway upon agonist binding to the receptor. As a result, activated PLC hydrolyzes phosphatyl inositol diphosphate (PIP2) to diacylglycerol (DAG) and phosphatidyl-1,4,5-triphosphate (IP3), which in turn generates calcium release from intracellular stores, i.e., endoplasmic and sarcoplasmic reticulum. […] This fluorescence event was measured in real time by the FLIPR, which detected the change in fluorescence from a monolayer of cells cloned with human M1 and M3, and chimpanzee M5 receptors. Antagonist potency was determined by the ability of antagonists to inhibit agonist-mediated increases in intracellular calcium. […]
# To determine antagonist potency, the dose-dependent stimulation of intracellular Ca^2+ release for oxotremorine was first determined so that antagonist potency can later be measured against oxotremorine stimulation at an EC90 concentration. […]
# The parameters used for the FLIPR were: exposure length of 0.4 seconds, laser strength of 0.5 watts, excitation wavelength of 488 nm, and emission wavelength of 550 nm. Baseline was determined by measuring the change in fluorescence for 10 seconds prior to addition of agonist. […]
# T1 sequence (P20309 whole entry): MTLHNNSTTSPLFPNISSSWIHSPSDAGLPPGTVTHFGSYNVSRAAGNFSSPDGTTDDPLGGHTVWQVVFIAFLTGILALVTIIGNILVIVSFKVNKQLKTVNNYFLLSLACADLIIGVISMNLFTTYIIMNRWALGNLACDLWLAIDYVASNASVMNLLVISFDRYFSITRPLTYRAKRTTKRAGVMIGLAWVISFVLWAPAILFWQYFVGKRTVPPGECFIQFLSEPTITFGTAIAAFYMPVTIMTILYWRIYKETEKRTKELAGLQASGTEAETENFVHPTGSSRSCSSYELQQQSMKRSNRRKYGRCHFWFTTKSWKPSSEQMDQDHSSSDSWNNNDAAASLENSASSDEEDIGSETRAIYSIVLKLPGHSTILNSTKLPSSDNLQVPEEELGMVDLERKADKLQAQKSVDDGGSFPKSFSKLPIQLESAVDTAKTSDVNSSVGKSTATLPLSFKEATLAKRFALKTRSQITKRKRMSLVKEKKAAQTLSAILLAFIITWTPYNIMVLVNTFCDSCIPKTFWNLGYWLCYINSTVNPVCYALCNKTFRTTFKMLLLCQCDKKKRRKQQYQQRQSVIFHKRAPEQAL
smiles,measurement,value
CNCC(=O)NCCCCCN1CC[C@@H](C(C(N)=O)(c2ccccc2)c2ccccc2)C1 [Example 1],Ki,< 100 nM
